These results are taken from paper PMC9246869, “Allosteric inhibition of PPM1D serine/threonine phosphatase via an altered conformational state” (Nature Communications, 2022).

For assay [1], the target named is T1, PPM1DΔhinge (Homo sapiens, UniProt O15297, DEL155-163/G166S/M164G/T165G).
T1 construct: PPM1D1–154-GGS-167–420 (PPM1D∆hinge); His(6)-SUMO (N, cleaved yes); made in house; host or cells: E. coli BL21 (DE3)
T1 sequence (O15297 with tags, fused parts or gaps DEL155-163/M164G/T165G/G166S): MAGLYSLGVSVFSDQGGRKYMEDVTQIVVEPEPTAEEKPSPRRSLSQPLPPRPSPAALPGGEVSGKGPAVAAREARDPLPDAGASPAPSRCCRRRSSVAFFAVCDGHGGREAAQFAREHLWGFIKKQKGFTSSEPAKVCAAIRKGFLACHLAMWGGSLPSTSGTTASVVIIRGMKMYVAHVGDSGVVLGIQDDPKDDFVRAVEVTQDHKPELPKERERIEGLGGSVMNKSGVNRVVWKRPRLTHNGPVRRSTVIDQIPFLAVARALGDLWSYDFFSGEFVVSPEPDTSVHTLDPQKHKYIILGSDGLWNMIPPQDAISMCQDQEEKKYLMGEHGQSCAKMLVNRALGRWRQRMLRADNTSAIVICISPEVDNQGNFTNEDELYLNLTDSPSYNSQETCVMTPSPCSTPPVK
Description: FDP (fluorescein diphosphate) enzymatic assay. In kind it is biochemical. The note with it: for FDP Assay, signal relative to 0 nM GSK (=100): PPM1DΔHinge, individual runs, listed as GSK. The procedure: The FDP assay was adapted from reported protocol with minor modifications. Fluorescein diphosphate tetra-ammonium salt (CAS 217305-49-2) was purchased from AAT Bioquest (Cat No.11600). The assay was carried out on a 384-well plate (Corning Cat No.3575) with assay buffer containing 50 mM Tris (pH 7.5), 50 mM NaCl, 30 mM MgCl2, 0.01% tween 20, and 2% DMSO. Reactions were initiated with the addition of FDP to a solution containing wild-type PPM1D or one of its variants, to a final concentration of 5 nM for PPM1D and 100 μM for FDP (or as indicated in Kcat/KM measurements). A fluorescent signal was detected on a Spectramax microplate reader (485/530 nm) for the next 15 min at room temperature with an interval for data collection of 45 s. For the IC50 measurement, the compound was pre-incubated with PPM1D for 1 h before addition of the substrate.

The target of assay [2] is T2, PPM1D1–420 (Homo sapiens, UniProt O15297).
T2 construct: PPM1D1–420 was PCR-amplified from the synthesized gene with BsaI sites; His(6)-SUMO (N, cleaved yes); made in house; host or cells: E. coli BL21 (DE3)
T2 sequence (O15297 1-420): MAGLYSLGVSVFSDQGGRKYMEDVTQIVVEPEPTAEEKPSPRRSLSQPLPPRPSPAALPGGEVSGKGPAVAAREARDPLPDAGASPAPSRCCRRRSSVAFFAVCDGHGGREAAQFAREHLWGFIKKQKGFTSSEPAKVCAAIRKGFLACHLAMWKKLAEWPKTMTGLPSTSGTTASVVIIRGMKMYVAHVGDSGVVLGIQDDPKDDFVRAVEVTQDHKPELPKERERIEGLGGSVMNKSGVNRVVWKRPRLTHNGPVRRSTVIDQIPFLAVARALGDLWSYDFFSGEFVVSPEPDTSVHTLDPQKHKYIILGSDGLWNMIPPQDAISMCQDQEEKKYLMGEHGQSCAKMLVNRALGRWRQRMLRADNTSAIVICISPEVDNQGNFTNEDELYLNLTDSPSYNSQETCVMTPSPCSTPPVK
The assay can be described thus: Sedimentation velocity analytical ultracentrifugation (SV-AUC). The settings on record: PPM1D1–420 15 µM with 3x compound, 2% DMSO. The procedure: AUC experiments were done using an Optima ultracentrifuge (Beckman Instruments). Proteins were dialyzed at 4 °C prior to each experiment in 20 mM HEPES (pH 7.4), 100 mM NaCl, 5 mM MgCl2, 0.1 mM TCEP. Sedimentation velocity (SV-AUC) experiments were conducted using an An50 Ti rotor at 50,000 rpm and 20 °C following temperature equilibration for 1 h prior to the start of the experiment. […] We, therefore, present these SV-AUC data as relative sedimenting populations with their experimentally observed S values. Absorbance data were collected at 280 nm. SedFIT was used to model the sedimentation coefficient distributions [c(s) analysis] for each experiment[38],[39]. Data were then refined using the c(s) with a conformational change model to better estimate the relative populations observed for PPM1D1–420. SedNTerp was used to calculate protein parameters. Images were generated using GUSSI[41].

The target of assay [3] is T3, PPM1DΔflap (Homo sapiens, UniProt O15297, DEL219-231/DEL235-284/E287S/S285N).
T3 construct: PPM1D1–218-GGSNGS-288–420 (PPM1D∆flap); His(6)-SUMO (N, cleaved yes); made in house; host or cells: E. coli BL21 (DE3)
T3 sequence (O15297 with tags, fused parts or gaps DEL219-231/DEL235-284/S285N/E287S): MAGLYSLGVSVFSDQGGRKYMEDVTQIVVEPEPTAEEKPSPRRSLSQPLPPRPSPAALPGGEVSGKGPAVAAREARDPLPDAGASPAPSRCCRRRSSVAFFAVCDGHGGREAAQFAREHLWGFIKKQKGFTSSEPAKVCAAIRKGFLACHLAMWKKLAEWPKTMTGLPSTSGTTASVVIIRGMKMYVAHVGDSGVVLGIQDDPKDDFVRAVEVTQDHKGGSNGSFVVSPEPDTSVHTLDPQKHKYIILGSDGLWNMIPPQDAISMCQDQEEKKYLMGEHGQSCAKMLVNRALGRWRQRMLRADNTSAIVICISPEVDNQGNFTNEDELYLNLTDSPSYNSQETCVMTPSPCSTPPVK
The assay can be described thus: Differential scanning fluorimetry (DSF). Type of assay: binding. The note with it: PPM1D Dflap, individual trials; in °C (unit assumed). The procedure: The purified protein constructs were mixed in the assay buffer containing 25 mM HEPES pH 7.5, 10 mM MgCl2, 150 mM NaCl. The sample preparation for the DSF assay included incubating the protein constructs (final concentration 0.2–0.4 mg/mL) with either DMSO alone (control) or with 40 µM GSK2830371 for 30 min before the addition of the Sypro orange dye (final concentration 10×). The final reaction volume of 10 µL was pipetted into a 384 multi-well clear plate (Light Cycler 480), sealed using a foil and spun down at 1000 × g for 2 min. The fluorescence emission intensity of the Sypro Orange dye was monitored in a LightCycler-480 instrument by running the Protein Melt program. The program was run in a continuous acquisition mode from 25 °C to 95 °C with a ramp rate of 0.06 °C/s (with 10 acquisitions/°C). The data (first derivative of the fluorescence signal as a function of temperature) was analyzed using the LightCycler-480 software for measuring the Tm values with and without the compound. A separate control with buffer alone and buffer with compound was run in the same plate to subtract out the potential interactions of the buffer components and/or the compound with the dye.
On the technique in general: Differential scanning fluorimetry follows unfolding on heating by fluorescence.

“And” between values parts separate entries of the source, which are not always exact repeats. Equal entries are not always repeated.

Take `Cc1ncc(Cl)cc1NCc1ccc(C(=O)N[C@@H](CC2CCCC2)C(=O)NC2CC2)s1` [GSK2830371]: the “increase of IC50 in FDP assay upon hinge deletion” value in assay [1] (PPM1DΔhinge versus PPM1D1–420) came to 100 fold. Besides, the “FDP Assay, signal relative to 0 nM GSK (=100)” value in assay [1] ([GSK] 9.76562 nM) was 99.774 and 81.7509; in assay [1] ([GSK] 19.5312 nM) it was 74.1093 and 82.0598; in assay [1] ([GSK] 39.0625 nM), 92.7672 and 94.3849; in assay [1] ([GSK] 78.125 nM) it was 88.4223 and 95.7187; in assay [1] ([GSK] 156.25 nM), 86.3292 and 93.2128; in assay [1] ([GSK] 312.5 nM), 78.7193 and 77.5806. Besides, the “FDP Assay, signal relative to 0 nM GSK (=100)” value in assay [1] ([GSK] 625 nM) is 74.7657 and 65.5885; in assay [1] ([GSK] 1250 nM) it was 60.0936 and 55.4697; in assay [1] ([GSK] 2500 nM) it was 47.8958 and 40.0931; in assay [1] ([GSK] 5000 nM), 6.587 and 19.2353; in assay [1] ([GSK] 10000 nM), 0.167 and 0.2855. In addition, in assay [2], the “sedimentation peak (SV-AUC) in presence of compound” value is on record as 2.69 S. The “DSF melting temperature with GSK2830371” value in assay [3] was 63.0141 and 62.619 and 62.5754 and 62.548.
